Reference: patent publication US20240400555A1 (Initial Therapeutics, Inc., priority 2023, published 2024)
Where two headings read alike, the source gives them in different places.

System: MV-4-11 cells
Assay: Cell Viability Assay in MV-4-11 Cells
Type: cell-based
Details: MV-4-11 cells, 72 h, Cell-Titer Glo, read-out: IC50
Outline: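 MV-4-11 cells at 7,000/well in IMDM with 10% FBS, exposed to compound for 72 h. Viability by CellTiter-Glo luminescence, normalized to DMSO as 100%, fitted with a four-parameter curve.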

SMILES | IC50 (Homo sapiens, MV4-11, 72 h) [µM] | IC50 [µM]
COCCc1nnc(-c2ccc(C(=O)N(c3nccc4scc(C)c34)[C@@H]3CCCNC3)cn2)s1 [Example 913, 6-[5-(2-methoxyethyl)-1,3,4-thiadiazol-2-yl]-N-(3-methylthieno[3,2-c]pyridin-4-yl)-N-[(3R)-3-piperidyl]pyridine-3-carboxamide] | 0.13 | –
COc1cc(C)c2c(N(C(=O)c3ccc(-c4nc(C)no4)cc3)[C@@H]3CCCNC3)nccc2c1 [Example 914, N-(6-methoxy-8-methyl-1-isoquinolyl)-4-(3-methyl-1,2,4-oxadiazol-5-yl)-N-[(3R)-3-piperidyl] benzamide] | 0.13 | –
Cc1cc(C)c2c(N(C(=O)c3ccc(-c4nc(C)no4)cc3)[C@@H]3CCCNC3)nccc2c1 [Example 915, N-(6,8-dimethyl-1-isoquinolyl)-4-(3-methyl-1,2,4-oxadiazol-5-yl)-N-[(3R)-3-piperidyl] benzamide] | 0.086 | –
Cc1cc(C)c2c(N(C(=O)c3ccc(-c4nc(C)no4)nc3)[C@@H]3CCCNC3)nccc2c1 [Example 916, N-(6,8-dimethyl-1-isoquinolyl)-6-(3-methyl-1,2,4-oxadiazol-5-yl)-N-[(3R)-3-piperidyl]pyridine-3-carboxamide] | 0.57 | –
Cc1nnc(-c2ccc(C(=O)N(c3nccc4cc(Cl)cc(C)c34)[C@@H]3CCCNC3)cn2)o1 [Example 917, N-(6-chloro-8-methyl-1-isoquinolyl)-6-(5-methyl-1,3,4-oxadiazol-2-yl)-N-[(3R)-3-piperidyl]pyridine-3-carboxamide] | 0.11 | –
Cc1nnc(-c2ccc(C(=O)N(c3nccc4cc(F)cc(C)c34)[C@@H]3CCCNC3)cn2)o1 [Example 918, N-(6-fluoro-8-methyl-1-isoquinolyl)-6-(5-methyl-1,3,4-oxadiazol-2-yl)-N-[(3R)-3-piperidyl]pyridine-3-carboxamide] | 0.17 | –
Cc1nnc(-c2ccc(C(=O)N(c3nccc4scc(C)c34)[C@@H]3CCCNC3)cn2)o1 [Example 919, 6-(5-methyl-1,3,4-oxadiazol-2-yl)-N-(3-methylthieno[3,2-c]pyridin-4-yl)-N-[(3R)-3-piperidyl]pyridine-3-carboxamide] | 0.16 | –
COCCn1cc(-c2ccc(C(=O)N(c3nccc4cc(F)cc(C)c34)[C@@H]3CCCNC3)cn2)nn1 [Example 920, N-(6-fluoro-8-methyl-1-isoquinolyl)-6-[1-(2-methoxyethyl)triazol-4-yl]-N-[(3R)-3-piperidyl]pyridine-3-carboxamide] | 0.084 | –
COCCn1cc(-c2ccc(C(=O)N(c3nccc4cc(Cl)cc(C)c34)[C@@H]3CCCNC3)cn2)nn1 [Example 921, N-(6-chloro-8-methyl-1-isoquinolyl)-6-[1-(2-methoxyethyl)triazol-4-yl]-N-[(3R)-3-piperidyl]pyridine-3-carboxamide] | 0.052 | –
Cc1cccc2ccnc(N(C(=O)c3ccc(-c4cncc5c4OCCC5)cc3)[C@@H]3CCCNC3)c12 [Example 922, (R)-4-(3,4-dihydro-2H-pyrano[3,2-c]pyridin-8-yl)-N-(8-methylisoquinolin-1-yl)-N-(piperidin-3-yl)benzamide] | 0.42 | –
Cc1csc2ccnc(N(C(=O)c3ccc(-c4nnn5c4CN(C)CC5)cc3F)[C@@H]3CCCNC3)c12 [Example 923, 2-fluoro-4-(5-methyl-6,7-dihydro-4H-triazolo[1,5-a]pyrazin-3-yl)-N-(3-methylthieno[3,2-c]pyridin-4-yl)-N-[(3R)-3-piperidyl]benzamide] | > 1 | –
Cc1cccnc1N(C(=O)c1ccc(Nc2ncccn2)cc1)[C@@H]1CCCNC1 [Example 924, (R)—N-(3-methylpyridin-2-yl)-N-(piperidin-3-yl)-4-(pyrimidin-2-ylamino)benzamide] | 0.085 | –
O=C(c1ccc(Nc2ncccn2)cc1)N(c1ncccc1Cl)[C@@H]1CCCNC1 [Example 925, (R)—N-(3-chloropyridin-2-yl)-N-(piperidin-3-yl)-4-(pyrimidin-2-ylamino)benzamide] | 0.032 | –
Cn1ccc2ccnc(N(C(=O)c3ccc(Nc4ncccn4)cc3F)[C@@H]3CCCNC3)c21 [Example 926, (R)-2-fluoro-N-(1-methyl-1H-pyrrolo[2,3-c]pyridin-7-yl)-N-(piperidin-3-yl)-4-(pyrimidin-2-ylamino)benzamide] | 0.075 | –
O=C(c1ccc(Nc2ncccn2)cc1F)N(c1nccc2ccccc12)[C@@H]1CCCNC1 [Example 927, (R)-2-fluoro-N-(isoquinolin-1-yl)-N-(piperidin-3-yl)-4-(pyrimidin-2-ylamino)benzamide] | 0.2 | –
Cc1cccc2ccnc(N(C(=O)c3ccc(N(C)c4ncccn4)cc3F)[C@@H]3CCCNC3)c12 [Example 928, (R)-2-fluoro-4-(methyl(pyrimidin-2-yl)amino)-N-(8-methylisoquinolin-1-yl)-N-(piperidin-3-yl)benzamide] | 0.25 | –

SMILES | IC50 (Homo sapiens, MV4-11, 72 h) [µM] | IC50 [µM]
COC(=O)c1cnc(Nc2ccc(C(=O)N(c3nccc4cccc(C)c34)[C@@H]3CCCNC3)c(F)c2)nc1 [Example 929, methyl (R)-2-((3-fluoro-4-((8-methylisoquinolin-1-yl)(piperidin-3-yl)carbamoyl)phenyl)amino)pyrimidine-5-carboxylate] | 0.11 | –
C=C(C)c1cccnc1N(C(=O)c1ccc(Nc2ncccn2)cc1F)[C@@H]1CCCNC1 [Example 930, (R)-2-fluoro-N-(piperidin-3-yl)-N-(3-(prop-1-en-2-yl)pyridin-2-yl)-4-(pyrimidin-2-ylamino)benzamide] | 0.4 | –
Cc1csc2ccnc(N(C(=O)c3ccc(Nc4ncccn4)cc3F)[C@@H]3CCCNC3)c12 [Example 931, (R)-2-fluoro-N-(3-methylthieno[3,2-c]pyridin-4-yl)-N-(piperidin-3-yl)-4-(pyrimidin-2-ylamino)benzamide] | – | 0.17
Cc1cccc2ccnc(N(C(=O)c3ccc(Nc4nccc(-c5ccc6[nH]ncc6c5)n4)cc3F)[C@@H]3CCCNC3)c12 [Example 932, (R)-4-((4-(1H-indazol-5-yl)pyrimidin-2-yl)amino)-2-fluoro-N-(8-methylisoquinolin-1-yl)-N-(piperidin-3-yl)benzamide] | 0.02 | –
CC(=O)N1CCN(c2ccnc(Nc3ccc(C(=O)N(c4nccc5cccc(C)c45)[C@@H]4CCCNC4)c(F)c3)n2)CC1 [Example 933, (R)-4-((4-(4-acetylpiperazin-1-yl)pyrimidin-2-yl)amino)-2-fluoro-N-(8-methylisoquinolin-1-yl)-N-(piperidin-3-yl)benzamide] | 0.18 | –
Cc1cccc2ccnc(N(C(=O)c3ccc(Nc4nccc(CN5CCN(C)CC5)n4)cc3F)[C@@H]3CCCNC3)c12 [Example 934, (R)-2-fluoro-N-(8-methylisoquinolin-1-yl)-4-((4-((4-methylpiperazin-1-yl)methyl)pyrimidin-2-yl)amino)-N-(piperidin-3-yl)benzamide] | 0.12 | –
Cc1cccc2ccnc(N(C(=O)c3ccc(Nc4nccc(N5CCS(=O)(=O)CC5)n4)cc3F)[C@@H]3CCCNC3)c12 [Example 935, (R)-4-((4-(1,1-dioxidothiomorpholino)pyrimidin-2-yl)amino)-2-fluoro-N-(8-methylisoquinolin-1-yl)-N-(piperidin-3-yl)benzamide] | 0.063 | –
Cc1cccc2ccnc(N(C(=O)c3ccc(Nc4nccc(N5CCC(C)(O)CC5)n4)cc3F)[C@@H]3CCCNC3)c12 [Example 936, (R)-2-fluoro-4-(4-(4-hydroxy-4-methylpiperidin-1-yl)pyrimidin-2-ylamino)-N-(8-methylisoquinolin-1-yl)-N-(piperidin-3-yl)benzamide] | 0.024 | –
Cc1cccc2ccnc(N(C(=O)c3ccc(Nc4nccc(N5CCOCC5=O)n4)cc3F)[C@@H]3CCCNC3)c12 [Example 937, (R)-2-fluoro-N-(8-methylisoquinolin-1-yl)-4-(4-(3-oxomorpholino)pyrimidin-2-ylamino)-N-(piperidin-3-yl)benzamide] | 0.05 | –
Cc1cccc2ccnc(N(C(=O)c3ccc(Nc4nccc(N5CCNC(=O)C5)n4)cc3F)[C@@H]3CCCNC3)c12 [Example 938, (R)-2-fluoro-N-(8-methylisoquinolin-1-yl)-4-((4-(3-oxopiperazin-1-yl)pyrimidin-2-yl)amino)-N-(piperidin-3-yl)benzamide] | 0.29 | –
Cc1cccc2ccnc(N(C(=O)c3ccc(Nc4nccc(N5[C@H](C)COC[C@H]5C)n4)cc3F)[C@@H]3CCCNC3)c12 [Example 939, 4-((4-((3R,5R)-3,5-dimethylmorpholino)pyrimidin-2-yl)amino)-2-fluoro-N-(8-methylisoquinolin-1-yl)-N—((R)-piperidin-3-yl)benzamide] | 0.069 | –
Cc1cccc2ccnc(N(C(=O)c3ccc(Nc4nccc(N5[C@H](C)COC[C@@H]5C)n4)cc3F)[C@@H]3CCCNC3)c12 [Example 940, 4-((4-((3R,5S)-3,5-dimethylmorpholino)pyrimidin-2-yl)amino)-2-fluoro-N-(8-methylisoquinolin-1-yl)-N—((R)-piperidin-3-yl)benzamide] | 0.034 | –
Cc1cccc2ccnc(N(C(=O)c3ccc(Nc4nccc(N5CCOC[C@H]5C(C)C)n4)cc3F)[C@@H]3CCCNC3)c12 [Example 941, 2-fluoro-4-((4-((R)-3-isopropylmorpholino)pyrimidin-2-yl)amino)-N-(8-methylisoquinolin-1-yl)-N—((R)-piperidin-3-yl)benzamide] | 0.039 | –
Cc1cccc2ccnc(N(C(=O)c3ccc(Nc4nccc(N5CCOC[C@H]5CO)n4)cc3F)[C@@H]3CCCNC3)c12 [Example 942, 2-fluoro-4-((4-((R)-3-(hydroxymethyl)morpholino)pyrimidin-2-yl)amino)-N-(8-methylisoquinolin-1-yl)-N—((R)-piperidin-3-yl)benzamide] | 0.088 | –
COC[C@@H]1COCCN1c1ccnc(Nc2ccc(C(=O)N(c3nccc4cccc(C)c34)[C@@H]3CCCNC3)c(F)c2)n1 [Example 943, 2-fluoro-4-(4-((R)-3-(methoxymethyl)morpholino)pyrimidin-2-ylamino)-N-(8-methylisoquinolin-1-yl)-N—((R)-piperidin-3-yl)benzamide] | 0.08 | –
